Data set [1] relates to Rattus norvegicus. In words: Antiinflammatory activity in po dosed Wistar rat assessed as inhibition of carrageenan-induced paw edema administered 1 hr prior to carrageenan challenge measured after 3 hrs of carrageenan challenge. The data set is classed as functional. (In general: The carrageenan paw model is a standard test of acute inflammation.)
Data set [2] deals with Rattus norvegicus. In words: Induction of carrageenan-induced paw edema in Wistar rat administered 1 hr prior to carrageenan challenge measured at 50 mg/kg, po after 3 hrs of carrageenan challenge relative to vehicle-treated control. The data set is classed as organism-based. Further details: dose 50 mg/kg, route oral. To be noted: in vivo.
Data set [3] has as its system Rattus norvegicus. In words: Antiinflammatory activity in Wistar rat assessed as inhibition of carrageenan-induced paw edema administered 1 hr prior to carrageenan challenge measured at 25 mg/kg, po after 3 hrs of carrageenan challenge relative to vehicle-treated control. The data set is classed as functional.

The structures appear in SMILES notation. Calls of active or inactive are those of the source. The rule behind the calls is not given here.

The term ED50 denotes the dose at which the effect has come halfway, by size or by number of responders. As usually defined, the inhibition in vivo is the relative decrease from the control value, in per cent.

In the case of `O=C(O)CCCCCc1ccc(OCc2ccccc2C(=O)O)cc1`, in data set [1], the inhibition entry was “inactive”.
As for `O=C(O)CCCc1ccc2c(c1)C(=O)c1ccccc1CO2`, the ED50 in data set [1] worked out at 10.1 mg/kg.
The same measure, in the same setting: in the case of `COc1ccc2c(c1)c(CC(=O)O)c(C)n2C(=O)c1ccc(Cl)cc1` [INDOMETHACIN] it was 4.4 mg/kg.
As to `O=C(O)CCCCCCCc1ccc(OCc2ccccc2C(=O)O)cc1`, in data set [1], the inhibition result was “inactive”.
The molecule `O=C(O)CCc1ccc2c(c1)C(=O)c1ccccc1CO2` displayed an Activity in data set [2] of 11%.
Consider `O=C(O)CCCc1ccc(OCc2ccccc2C(=O)O)cc1`, for which the inhibition entry in data set [1] is “inactive”.
In the case of `CC(C)OC(=O)CCCc1ccc2c(c1)C(=O)c1ccccc1CO2`, the inhibition in vivo at 25 mg/kg in data set [3] was 43.7%.
Regarding `O=C(O)CCCCCCCc1ccc2c(c1)C(=O)c1ccccc1CO2`, the median effective dose (ED50) in data set [1] was 11.7 mg/kg.
Turning to `O=C(O)Cc1ccc2c(c1)C(=O)c1ccccc1CO2` [ISOXEPAC], in data set [1], the median effective dose (ED50) was found to be 6.4 mg/kg.
Take `O=C(O)CCCCCc1ccc2c(c1)C(=O)c1ccccc1CO2`: the ED50 in data set [1] turned out to be 18.2 mg/kg.
`COC(=O)CCCc1ccc2c(c1)C(=O)c1ccccc1CO2`: the inhibition in vivo at 25 mg/kg in data set [3] turned out to be 31.7%.
As to `O=C(O)CCc1ccc(OCc2ccccc2C(=O)O)cc1`, in data set [1], the inhibition result is “inactive”.
